Experimental data published in patent US20230123334A1, “AMINO LIPID COMPOUND, PREPARATION METHOD THEREFOR, AND APPLICATION THEREOF” (SHENZHEN SHENXIN BIOTECHNOLOGY CO., LTD., priority 2020, published 2023).

How the values were obtained:
[1] = tested on: Hela cells; assay: Transfection of Hela cell line, DNA vectors; assay type: cell-based; settings: 75 ng plasmid DNA, GFP cells / total cells
Experimental: 1. The compound (0.01 mmol) prepared in Example 1 was dissolved in 1 mL of anhydrous ethanol. After ultrasonically dissolved, 10 μL of the resultant amino lipid solution in ethanol was taken and mixed with 5 μL of DOPE solution in ethanol (0.01 m), and then to the obtained mixture was added 35 μL of 0.2M sodium acetate buffer (pH 5.6), and 50 μL of liposome solution was prepared by vortex at a constant rotating speed for 30 s. 4 μL was taken from the 50 μL liposome solution and added to 46 μL of 0.02M sodium acetate buffer (pH 5.6), and the final liposome solution was formed by vortex at a constant rotating speed for 30 s. 5 μL was taken from the final liposome solution and mixed with 75 ng plasmid DNA (psin-EGFP-IRES-Puro, Clontech) dissolved in 5 μL of 0.02 M sodium acetate buffer, and was allowed to stay at room temperature for 30 min to form a lipid/DNA transfection complex.
2. 10 μL of the lipid/DNA transfection complex was incubated at room temperature for 30 min, followed by addition of 90 μL of fresh resuspended cells (3-5×10^4 cells) and mixing with a pipette. 100 μL of cells+lipid/DNA complex was transferred to separate wells of a 96-well culture plate immediately, and placed in an incubator containing 5% CO2 at 37° C.
3. Hoechst33258 (Invitrogen) was added at a final concentration of 0.2 μg/mL to the cells 20 to 24 hours after initial cell transfection, and cultured in darkness at 37° C. for 15 min. Afterwards, the cells were washed once with a PBS solution, and then added with medium for culture for 20 to 24 h.
4. The cells were placed in a high-throughput confocal microscope (Molecular Devices ImageXpress), and four visual fields of the image of the cells were captured for each well, and images at three laser wavelengths were captured for each sample: bright field images of cells (FIG. 2(a) and FIG. 2(b)), Hoechst-staining images showing total nuclei (FIG. 2(c) and FIG. 2(d)) and GFP images showing success in transfection with the plasmid DNA and the expression of GFP (FIG. 2(e) and FIG. 2(f)). MetaXpress software was used to separately count the cells in the Hoechst-staining images and GFP images, and then the number of cells expressing GFP was divided by the total number of nuclei to give the absolute cell transfection efficiency. The absolute transfection efficiency was calculated as follows: […]
(§1) Cell line: Hela cells (ATCC 35241)
(§2) Medium: DMEM supplemented with 10% fetal bovine serum (Invitrogen)
(§3) Screening: cell transfection on 96-well plates
(§4) Detection (readout): percentage of the number of GFP fluorescent cells relative to the total number of cells (the total number of cells was determined using nucleus dye Hoechst). Lipofectamine2000 (Invitrogen) was used as the positive control, according to the manufacturer's instructions.
Method: the experimental method was basically the same with Example 4.

[2] = tested on: Hela cells; assay: Transfection of Hela cell line, mRNA vectors; assay type: cell-based; settings: 50 ng EGFP mRNA per well
Experimental: as §1, §2, §3
as §4, with “Hoechst). A commercially available liposome transfection reagent” for “Hoechst).”, “control group,” for “control,”
Method: the experimental method was basically the same with Example 4, and the mass of EGFP mRNA for transfection was 50 ng per well.

Structure (SMILES)	Absolute DNA transfection efficiency in Hela cells [1]	Absolute mRNA transfection efficiency in Hela cells [2]
CCCCCCCCCCCSc1nc(NCCCCCCCCC)nc(NCCN(CC)CC)n1 [Compound S11N9D7]	0.9%	0.9%
CCCCCCCCCCCSc1nc(NCCCCCCCCC)nc(NCCN2CCOCC2)n1 [Compound S11N9D2]	6.8%	6.8%
CCCCCCCCCCCCNc1nc(NCCN2CCOCC2)nc(SCCCCCCCCC)n1 [Compound S9N12D2]	6.5%	6.5%
CCCCCCCCCCCCNc1nc(NCCN(C)C)nc(SCCCCCCCCC)n1 [Compound S9N12D1]	19.7%	19.6%
CCCCCCCCCCCSc1nc(NCCCCCCC)nc(NCCN2CCCCC2)n1 [Compound S11N7D4]	2.3%	2.3%
CCCCCCCCCCCCSc1nc(NCCN2CCCCC2)nc(SCCCCCCCC)n1 [Compound S8S12D4]	5.4%	5.4%
CCCCCCCCCCCNc1nc(NCCN(CC)CC)nc(SCCCCCCCC)n1 [Compound S8N11D7]	12.2%	12.3%
CCCCCCCCCCCSc1nc(NCCCCCCCC)nc(NCCN(CC)CC)n1 [Compound S11N8D7]	5.7%	5.7%
CCCCCCCCCCCCSc1nc(NCCN2CCOCC2)nc(SCCCCCCCC)n1 [Compound S8S12D2]	8.7%	8.7%
CCCCCCCCCCCSc1nc(NCCCCCCCCC)nc(NCCN(C)C)n1 [Compound S11N9D1]	6.0%	6.0%
CCCCCCCCCCCSc1nc(NCCCCCCC)nc(NCCN2CCOCC2)n1 [Compound S11N7D2]	5.8%	5.8%
CCCCCCCCCCCSc1nc(NCCCCCCCC)nc(NCCN2CCOCC2)n1 [Compound S11N8D2]	9.3%	9.3%
CCCCCCCCCCCCNc1nc(NCCN(C)C)nc(SCCCCCCCC)n1 [Compound S8N12D1]	11.5%	11.5%
CCCCCCCCCCCCNc1nc(NCCN2CCCCC2)nc(SCCCCCCCC)n1 [Compound S8N12D4]	3.81%	3.8%
CCCCCCCCCCCNc1nc(NCCN2CCOCC2)nc(SCCCCCCCCC)n1 [Compound S9N11D2]	8.2%	8.2%
CCCCCCCCCCCNc1nc(NCCN2CCOCC2)nc(SCCCCCCCC)n1 [Compound S8N11D2]	12.7%	12.7%
CCCCCCCCCCCCSc1nc(NCCN(CC)CC)nc(SCCCCCCC)n1 [Compound S7S12D7]	3.5%	3.5%
CCCCCCCCCCCCCNc1nc(NCCN2CCOCC2)nc(SCCCCCCCC)n1 [Compound S8N13D2]	9.83%	9.8%
CCCCCCCCCCCCCNc1nc(NCCN(CC)CC)nc(SCCCCCCCC)n1 [Compound S8N13D7]	4.5%	4.5%
CCCCCCCCCCCCCNc1nc(NCCN2CCCCC2)nc(SCCCCCCCC)n1 [Compound S8N13D4]	1.8%	1.8%
CCCCCCCCCCCCNc1nc(NCCN(CC)CC)nc(SCCCCCCCCC)n1 [Compound S9N12D7]	6.8%	6.8%
CCCCCCCCCCCSc1nc(NCCN(C)C)nc(SCCCCCCC)n1 [Compound S7S11D1]	5.9%	5.9%

Structure (SMILES)	Absolute DNA transfection efficiency in Hela cells [1]	Absolute mRNA transfection efficiency in Hela cells [2]
CCCCCCCCCCCNc1nc(NCCN2CCCCC2)nc(SCCCCCCCCC)n1 [Compound S9N11D4]	4.4%	4.4%
CCCCCCCCCCCCSc1nc(NCCN(C)C)nc(SCCCCCCCC)n1 [Compound S8S12D1]	5.4%	5.4%
CCCCCCCCCCCSc1nc(NCCCCCCCC)nc(NCCN2CCCCC2)n1 [Compound S11N8D4]	2.9%	2.9%
CCCCCCCCCCCSc1nc(NCCCCCCCC)nc(NCCN(C)C)n1 [Compound S11N8D1]	9.9%	9.9%
CCCCCCCCCCCCNc1nc(NCCN2CCCCC2)nc(SCCCCCCCCC)n1 [Compound S9N12D4]	4.1%	4.1%
CCCCCCCCCCCNc1nc(NCCN(CC)CC)nc(SCCCCCCCCC)n1 [Compound S9N11D7]	7.8%	7.8%
CCCCCCCCCNc1nc(NCCN(CC)CC)nc(SCCCCCCCCC)n1 [Compound S9N9D7]	24.8%	24.8%
CCCCCCCCCCCSc1nc(NCCCCCCC)nc(NCCN(C)C)n1 [Compound S11N7D1]	13.9%	13.9%
CCCCCCCCCCCSc1nc(NCCN2CCOCC2)nc(SCCCCCCC)n1 [Compound S7S11D2]	13.6%	13.6%
CCCCCCCCCCCCCNc1nc(NCCN(C)C)nc(SCCCCCCCC)n1 [Compound S8N13D1]	9.7%	9.7%
CCCCCCCCCCCCSc1nc(NCCN2CCCCC2)nc(SCCCCCCC)n1 [Compound S7S12D4]	4.7%	4.7%
CCCCCCCCCCCCNc1nc(NCCN2CCOCC2)nc(SCCCCCCCC)n1 [Compound S8N12D2]	19.3%	19.3%
CCCCCCCCCCCSc1nc(NCCN2CCOCC2)nc(SCCCCCCCC)n1 [Compound S8S11D2]	8.9%	8.6%
CCCCCCCCCCCSc1nc(NCCN2CCCCC2)nc(SCCCCCCCC)n1 [Compound S8S11D4]	4.5%	4.5%
CCCCCCCCCCCSc1nc(NCCN(CC)CC)nc(SCCCCCCCC)n1 [Compound S8S11D7]	5.7%	5.7%
CCCCCCCCCCCCSc1nc(NCCN(C)C)nc(SCCCCCCC)n1 [Compound S7S12D1]	4.2%	4.1%
CCCCCCCCCCCNc1nc(NCCN2CCCCC2)nc(SCCCCCCCC)n1 [Compound S8N11D4]	7.6%	7.6%
CCCCCCCCCCCSc1nc(NCCN2CCCCC2)nc(SCCCCCCC)n1 [Compound S7S11D4]	7.9%	7.9%
CCCCCCCCCNc1nc(NCCN2CCCCC2)nc(SCCCCCCCCC)n1 [Compound S9N9D4]	8.9%	8.9%
CCCCCCCCCCCCSc1nc(NCCN2CCOCC2)nc(SCCCCCCC)n1 [Compound S7S12D2]	9.2%	9.2%
CCCCCCCCCCCNc1nc(NCCN(C)C)nc(SCCCCCCCC)n1 [Compound S8N11D1]	21.12%	21.2%
